Measurements reported in ChEMBL document CHEMBL1201862, “PubChem BioAssay data set” (2004).
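1) Cells in 96-well plates. 2) Compound, 48 h, 5 concentrations. 3) Linear interpolation between surrounding doses. 4) Unreached endpoint = highest concentration. At the GI50, growth is halved.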 Calls of active or inactive are those of the source. Cut-off read from the data, not from the text of the source: active = GI50 up to about 1.1 µM and inactive = higher.

Key:
Assay in all cases: DTP human tumour cell line panel, 48 h
[1] = test system: NCI/ADR-RES
[2] = test system: NCI-H522
[3] = test system: ACHN
[4] = test system: MOLT-4
[5] = test system: MDA-MB-435
[6] = test system: OVCAR-5
[7] = test system: SNB-19
[8] = test system: UACC-257
[9] = test system: UACC-62
[10] = test system: 786-0
[11] = test system: SR
[12] = test system: MDA-N
[13] = test system: TK-10
[14] = test system: M14
[15] = test system: U-251
[16] = test system: CAKI-1
[17] = test system: HCC 2998
[18] = test system: SW-620
[19] = test system: HOP-62
[20] = test system: HT-29

What does the source list for COC(=O)c1cc2ccc(O)c(O)c2cn1?
GI50 [1]: 7.59 µM (inactive); GI50 [2]: 21.6 µM (inactive); GI50 [3]: 19.1 µM (inactive); GI50 [4]: 3.44 µM (inactive); GI50 [5]: 1.73 µM (inactive); GI50 [6]: 19.5 µM (inactive); GI50 [7]: > 10 µM (inactive); GI50 [8]: 15.4 µM (inactive); GI50 [9]: 2.41 µM (inactive); GI50 [10]: 2.7 µM (inactive); GI50 [11]: 4.25 µM (inactive); GI50 [12]: 1.52 µM (inactive); GI50 [13]: 20 µM (inactive); GI50 [14]: 18.5 µM (inactive); GI50 [15]: 8.55 µM (inactive); GI50 [16]: 13 µM (inactive); GI50 [17]: > 10 µM (inactive); GI50 [18]: 16.6 µM (inactive); GI50 [19]: 20.6 µM (inactive); GI50 [20]: > 10 µM (inactive)

What does the source list for OC[C@@H](O)[C@H](O)[C@H](O)[C@@H](O)C1SCCCS1?
GI50 [1]: > 100 µM (inactive); GI50 [3]: > 100 µM (inactive); GI50 [4]: > 100 µM (inactive); GI50 [5]: > 100 µM (inactive); GI50 [6]: > 100 µM (inactive); GI50 [7]: > 100 µM (inactive); GI50 [8]: > 100 µM (inactive); GI50 [9]: > 100 µM (inactive); GI50 [10]: > 100 µM (inactive); GI50 [11]: 63.8 µM (inactive); GI50 [12]: > 100 µM (inactive); GI50 [13]: > 100 µM (inactive); GI50 [14]: > 100 µM (inactive); GI50 [15]: > 100 µM (inactive); GI50 [16]: > 100 µM (inactive); GI50 [17]: > 100 µM (inactive); GI50 [18]: > 100 µM (inactive); GI50 [19]: > 100 µM (inactive); GI50 [20]: > 100 µM (inactive)

How did the GI50 [1] turn out when COC(=O)/C(C)=N/N=C(\S)SC was run?
Its GI50 is 30 µM (inactive).

And the GI50 [2]?
The GI50 was 22.7 µM (inactive).

And the GI50 [3]?
Its GI50 is 34.1 µM (inactive).

What about the GI50 [4] of the same compound?
The GI50 was 55.1 µM (inactive).

What about the GI50 [5] of the same compound?
Its GI50 is 60.5 µM (inactive).

And the GI50 [6]?
Its GI50 is 80.2 µM (inactive).

What about the GI50 [8] of the same compound?
The GI50 was 50.9 µM (inactive).

And the GI50 [10]?
Its GI50 is 35.9 µM (inactive).

What about the GI50 [11] of the same compound?
The GI50 was 49.7 µM (inactive).

And the GI50 [12]?
The GI50 was 77.1 µM (inactive).

And the GI50 [13]?
The GI50 was 95.5 µM (inactive).

What about the GI50 [14] of the same compound?
The GI50 was 23.2 µM (inactive).

And the GI50 [15]?
Its GI50 is 38.5 µM (inactive).

And the GI50 [16]?
The GI50 was 35.2 µM (inactive).

And the GI50 [17]?
The GI50 was 40.6 µM (inactive).

What about the GI50 [18] of the same compound?
Its GI50 is 44.3 µM (inactive).

And the GI50 [19]?
The GI50 was > 100 µM (inactive).

What about the GI50 [20] of the same compound?
Its GI50 is 17.3 µM (inactive).

Which results are given for COC(=O)C12OCC34C(CC5C(C)=CC(=O)C(O)C5(C)C3C(O)C1O)OC(=O)C(OC(=O)CC(C)C)C24 (stereo unspecified)?
GI50 [1]: 0.00289 µM (active); GI50 [2]: 0.000352 µM (active); GI50 [3]: < 0.0371 µM (active); GI50 [5]: 0.00103 µM (active); GI50 [6]: 0.00325 µM (active); GI50 [7]: 0.0014 µM (active); GI50 [8]: 0.00284 µM (active); GI50 [9]: 0.00223 µM (active); GI50 [10]: 0.0468 µM (active); GI50 [11]: 0.000327 µM (active); GI50 [12]: 0.00142 µM (active); GI50 [13]: 0.0444 µM (active); GI50 [14]: < 0.0381 µM (active); GI50 [15]: 0.00116 µM (active); GI50 [16]: 0.005 µM (active); GI50 [17]: 0.000803 µM (active); GI50 [18]: 0.002 µM (active); GI50 [19]: 0.00222 µM (active); GI50 [20]: 0.000973 µM (active)

What does the source list for CC1(C)CC[C@]2(C(=O)O)CC[C@]3(C)C(=CC[C@@H]4[C@@]5(C)C[C@H](O)[C@H](O)[C@@](C)(CO)C5=CC[C@]43C)[C@@H]2C1?
GI50 [1]: 41.1 µM (inactive); GI50 [2]: 20.2 µM (inactive); GI50 [3]: 34.8 µM (inactive); GI50 [4]: 35.6 µM (inactive); GI50 [5]: > 100 µM (inactive); GI50 [6]: > 100 µM (inactive); GI50 [7]: 42.7 µM (inactive); GI50 [8]: > 100 µM (inactive); GI50 [9]: > 100 µM (inactive); GI50 [10]: 55.2 µM (inactive); GI50 [11]: > 100 µM (inactive); GI50 [12]: > 100 µM (inactive); GI50 [13]: > 100 µM (inactive); GI50 [14]: > 100 µM (inactive); GI50 [15]: 61.7 µM (inactive); GI50 [16]: 55 µM (inactive); GI50 [17]: 35.4 µM (inactive); GI50 [18]: > 100 µM (inactive); GI50 [19]: > 100 µM (inactive); GI50 [20]: 55.5 µM (inactive)

Which GI50 [1] does the source give for COC(=O)/C=c1/c2ccccc2n2nc3ccccc3c12 here?
The GI50 was 30.8 µM (inactive).

And the GI50 [2]?
The GI50 was 29 µM (inactive).

And the GI50 [3]?
The GI50 was > 100 µM (inactive).

What about the GI50 [4] of the same compound?
Its GI50 is 6.01 µM (inactive).

What about the GI50 [5] of the same compound?
Its GI50 is 33 µM (inactive).

And the GI50 [6]?
Its GI50 is > 100 µM (inactive).

And the GI50 [7]?
The GI50 was 82.4 µM (inactive).

What about the GI50 [8] of the same compound?
The GI50 was 80.9 µM (inactive).

What about the GI50 [9] of the same compound?
Its GI50 is 70.8 µM (inactive).

What about the GI50 [10] of the same compound?
The GI50 was 27.6 µM (inactive).

And the GI50 [11]?
Its GI50 is 4.03 µM (inactive).

And the GI50 [12]?
The GI50 was 30.8 µM (inactive).

What about the GI50 [13] of the same compound?
The GI50 was 31.6 µM (inactive).

What about the GI50 [14] of the same compound?
The GI50 was > 100 µM (inactive).

And the GI50 [15]?
Its GI50 is 69 µM (inactive).

What about the GI50 [16] of the same compound?
The GI50 was 63 µM (inactive).

What about the GI50 [17] of the same compound?
The GI50 was 62.5 µM (inactive).

What about the GI50 [18] of the same compound?
The GI50 was 65 µM (inactive).

What about the GI50 [19] of the same compound?
Its GI50 is > 100 µM (inactive).

And the GI50 [20]?
Its GI50 is 38.9 µM (inactive).

Which results are given for COc1cc(/C=C2/Oc3c(OC)cccc3C2=O)ccc1O?
GI50 [1]: > 10 µM (inactive); GI50 [2]: 24.7 µM (inactive); GI50 [3]: 63.7 µM (inactive); GI50 [4]: 50.4 µM (inactive); GI50 [5]: 52.5 µM (inactive); GI50 [6]: > 100 µM (inactive); GI50 [7]: 91 µM (inactive); GI50 [8]: > 100 µM (inactive); GI50 [9]: > 100 µM (inactive); GI50 [10]: 76.4 µM (inactive); GI50 [11]: 29.9 µM (inactive); GI50 [12]: > 100 µM (inactive); GI50 [13]: > 100 µM (inactive); GI50 [14]: 30.8 µM (inactive); GI50 [15]: > 100 µM (inactive); GI50 [16]: 36.5 µM (inactive); GI50 [17]: 48.4 µM (inactive); GI50 [18]: > 100 µM (inactive); GI50 [19]: 83.8 µM (inactive); GI50 [20]: 52.4 µM (inactive)
